Source: paper PMC10885983 (Antibiotics, 2024)
Values after ≈ are worked out from the molar mass of the structure shown. Where two headings read alike, the source gives them in different places.

What was measured:
[1] = rat, in vivo, po, cited from earlier work
[2] = Pharmacokinetics of rhodomyrtone in rats after a single oral dose (HPLC-UV plasma analysis, non-compartment model); format: in vivo, Sprague Dawley rats; conditions: for AUC(0-t): read-out: AUC0–8; for Tmax / Vd/F: po; for k el: read-out: λz (converted)
Protocol: The HPLC method was used to quantify the concentration of rhodomyrtone in rat plasma after a single oral administration of 50 and 100 mg/kg. Blood samples were collected from tail veins at 0, 0.25, 0.5, 1, 2, 3, 4, 5, 6, 7 and 8 h. Rat plasma samples were prepared as described in Section 3.3. Rhodomyrtone was analyzed using a Bondapak C18 HPLC column at 25 °C. […] After several trials, the mobile phase was optimized to achieve good resolution and symmetric peak shapes for both rhodomyrtone and papaverine. […] An appropriate wavelength at 302 nm gave good sensitivity, with no interfering substance of other components. […] The curve of the rhodomyrtone concentration–time profiles was fitted in a non-compartment pharmacokinetic model due to the whole organism as a single compartment where the drug distributes homogeneously and instantaneously, resulting in a constant volume of distribution. The non-compartment model is multifaceted, and it is acceptable for bioequivalence studies.
An aliquot of each rat plasma sample (100 µL) or validation sample was pipetted into a 1.5 mL microcentrifuge tube, spiked with 25 µL papaverine working standard, then the rat plasma was deproteinized with 75 µL acetonitrile, mixed for 30 s and dropped off 5 min to precipitate the protein. The insoluble content was separated from plasma by centrifugation at 5000× g at 10 °C for 15 min, and we collected the supernatant. All samples were filtered through a 0.22 μm PTFE membrane filter. Subsequently, each sample was transferred into glass insert vials. The HPLC injection volume was 80 µL.
HPLC system consisted of Waters Alliance 2695, a model 2487 UV-Vis detector (Waters Associates, Milford, MA, USA). The maximum UV absorbance of rhodomyrtone was detected from 250 to 310 nm. Therefore, the detection wavelength was set at wavelength 302 nm. The chromatographic data were collected and analyzed using Millenium 32® software. Waters Bondapak C18 column, 5 μm, 4.6 mm × 150 mm, was used to set the standard for HPLC drug analytical measurement procedure. The mobile phase consisted of a mixture of acetonitrile and deionized water (80:20% v/v). The mobile phase was pre-filtered through a 0.20 μm filter and was delivered at a rate of 1 mL/min.
Male Sprague Dawley rats weighing 250–350 g were housed in separate stainless cages under a controlled environment (temperature at 22 ± 2 °C and relative humidity of 55 ± 10% with 12 h light and 12 h dark cycles) at the Southern Laboratory Animal Facility, Faculty of Science, Prince of Songkla University, Thailand. During the experimental period, they received a standard rodent diet with free access to ad libitum drinking water. Rats were divided into two groups, each consisting of 12 animals. Each group received a single oral dose of rhodomyrtone (dissolved in medium-chain triglyceride) at 50 mg/kg body weight (Group 1) and 100 mg/kg body weight (Group 2). The animals were fasted for 10 h prior to the experiment. An initial blood sample was taken by clipping the end of the animals’ tails. Blood samples (500 μL) were collected at time intervals of 0 (predose), 0.25, 0.5, 1, 2, 3, 4, 5, 6, 7 and 8 h. The samples were transferred to a heparinized microcentrifuge tube and centrifuged at 2500× g at 10 °C for 10 min. The plasma samples were stored at −80 °C until HPLC analysis.
The individual plasma concentration–time profiles were visually inspected to determine the maximum plasma concentration (Cmax), the minimum plasma concentration (Cmin) and the time to maximum plasma concentration (tmax). WinNonlin Version 1.1 (Scientific Consulting, Apex, NC, USA) was used to analyze the data and calculate for elimination half-life time (t1/2), elimination rate constant (λz), volume of distribution (Vz/F), area under the concentration–time curve between 0 and 8 h (AUC0–8) and the area under the concentration–time curve between 0 and infinity (AUC0–∞). The results were expressed as mean values ± standard deviation (SD).

[3] = Bench-top stability in plasma at 25 °C; format: in vitro ADME, rat; conditions: for Bench-top stability, Accuracy (%): n = 5
Protocol: The mean recovery was determined at low, medium and high concentrations from five replicates. The long-term storage stability at −80 °C was determined after 15, 30, 60 and 90 d. Bench-top stability testing was also conducted. […] The freeze–thaw cycles were stabilized. Rhodomyrtone was spiked in blank plasma, then stored in a freezer (−20 °C) and thawed every 24 h at room temperature (25 °C) for three cycles prior to extraction.

[4] = Freeze–thaw stability in plasma; format: in vitro ADME, rat; conditions: n = 5
Protocol: (§1) The mean recovery was determined at low, medium and high concentrations from five replicates. The long-term storage stability at −80 °C was determined after 15, 30, 60 and 90 d. Bench-top stability testing was also conducted. Samples were spiked in blank plasma and extracted, then analyzed in three replications at 25 °C for 0, 1, 2, 4, 6 and 8 h. The freeze–thaw cycles were stabilized. Rhodomyrtone was spiked in blank plasma, then stored in a freezer (−20 °C) and thawed every 24 h at room temperature (25 °C) for three cycles prior to extraction.

[5] = Long-term storage stability in plasma at −80 °C; format: in vitro ADME, rat; conditions: after 15, 30, 60 and 90 d
Protocol: as §1

[6] = test system: Staphylococcus epidermidis ATCC 35984 (biofilm positive); set-up: method as in PMID 34067029; conditions: cited from earlier work
[7] = test system: Bacillus cereus; set-up: method as in PMID 34067029; conditions: cited from earlier work
[8] = test system: Streptococcus mutans; set-up: method as in PMID 19303274; conditions: cited from earlier work
[9] = test system: Staphylococcus aureus ATCC 29213; set-up: method as in PMID 23019189, PMID 34067029; conditions: cited from earlier work
[10] = test system: Staphylococcus aureus clinical isolated; set-up: method as in PMID 30583020; conditions: cited from earlier work
[11] = test system: MRSA clinical isolated; conditions: cited from earlier work
[12] = test system: staphylococcal isolates; conditions: most staphylococcal isolates; no reference given; cited from earlier work
[13] = test system: MRSA; conditions: cited from earlier work
[14] = set-up: method as in PMID 32793420; conditions: cited from earlier work
[15] = test system: S. aureus or MRSA; set-up: method as in PMID 23029218; conditions: 45 passages of stepwise isolation of S. aureus or MRSA on Luria-Bertani agar with rhodomyrtone; cited from earlier work
[16] = cited from earlier work
[17] = set-up: method as in PMID 26312207; conditions: humans; cited from earlier work
[18] = male, Sprague Dawley, plasma, rat, single oral dose 50 mg/kg, n = 12
[19] = male, Sprague-Dawley, plasma, rat, single oral dose 50 mg/kg, n = 12
[20] = male, Sprague-Dawley, plasma, rat, single oral dose 100 mg/kg, n = 12

CC(=O)NC[C@H]1CN(c2ccc(N3CCOCC3)c(F)c2)C(=O)O1 [linezolid]
Cmax ([1]; 50 mg/kg): 25 mg/L
half-life [1]: 1.1 h

CC(C)CC(=O)c1c(O)cc2c(c1O)[C@@H](CC(C)C)C1=C(O2)C(C)(C)C(=O)C(C)(C)C1=O [rhodomyrtone, Rhodomyrtone]
half-life ([2]; male, Sprague Dawley, plasma, rat, oral, 50 to 100 mg/kg, read-out: terminal elimination phase half-life (t1/2) (converted)): ~150 min
CL/F [2, 18]: 266 mL/min/kg
AUC(0-t) [2, 18]: 2680 ± 1090 ng·h/mL
half-life ([2]; male, Sprague Dawley, plasma, rat, single oral dose 50 mg/kg, n = 12, read-out: t1/2 (converted)): 132 ± 44.4 min
CL/F ([2]; male, Sprague Dawley, plasma, rat, single oral dose 100 mg/kg, n = 12): 221 mL/min/kg
half-life ([2]; male, Sprague Dawley, plasma, rat, single oral dose 100 mg/kg, n = 12, read-out: t1/2 (converted)): 152 ± 55.2 min
bioavailability ([2]; male, Sprague Dawley, rat, plasma, oral, estimated from SwissADME bioavailability score and AUC, no intravenous data): ~10%
Tmax ([2]; male, Sprague Dawley, rat, plasma, 50 mg/kg, rat, single oral dose 50 mg/kg, n = 12, mean ± SD, read-out: Tmax): 1.92 ± 0.29 h
Vd/F ([2]; male, Sprague Dawley, rat, plasma, 50 mg/kg, rat, single oral dose 50 mg/kg, n = 12, read-out: Vz/F): 48.5 ± 16.9 L/kg
Vd/F ([2]; male, Sprague Dawley, rat, plasma, 100 mg/kg, rat, oral, 50 and 100 mg/kg doses (not significantly different), read-out: apparent total volume of distribution (Vz/F)): ~50 L/kg
Tmax ([2]; male, Sprague Dawley, rat, plasma, 100 mg/kg, rat, oral, both 50 and 100 mg/kg doses, read-out: time to maximum plasma concentration (Tmax)): 2 h
Tmax ([2]; male, Sprague Dawley, rat, plasma, 100 mg/kg, rat, single oral dose 100 mg/kg, n = 12, mean ± SD, read-out: Tmax): 2 h
Vd/F ([2]; male, Sprague Dawley, rat, plasma, 100 mg/kg, rat, single oral dose 100 mg/kg, n = 12, read-out: Vz/F): 46.6 ± 13.8 L/kg
concentration at 8 h ([2]; male, Sprague Dawley, rat plasma, oral 50 mg/kg, 8 h): ~100 ng/mL
Cmax ([2]; male, Sprague Dawley, rat plasma, single oral dose 50 mg/kg, n = 12): 570 ± 120 ng/mL
Cmax ([2]; male, Sprague Dawley, rat plasma, single oral dose 100 mg/kg, n = 12): 1310 ± 200 ng/mL
AUC(0-inf) [2, 19]: 3410 ± 1040 ng·h/mL
k el [2, 19]: 0.000139 s⁻¹
AUC(0-inf) [2, 20]: 7820 ± 1530 ng·h/mL
AUC(0-t) [2, 20]: 6650 ± 1130 ng·h/mL
k el [2, 20]: 8.33e-05 s⁻¹
Cmin ([2]; rat plasma, single oral dose 50 mg/kg, n = 12): 0.14 ± 0.06 µg/mL
Cmin ([2]; rat plasma, single oral dose 100 mg/kg, n = 12): 0.31 ± 0.09 µg/mL
time of rhodomyrtone concentrations above MIC (0.5–1 μg/mL) of most staphylococcal isolates ([2]; rat, oral 50 mg/kg): approximately 4 h
Cmax relative to the MBCs for MRSA (0.03–1.00 μg/mL) ([2]; rat, oral 100 mg/kg): 2–3 times
time of rhodomyrtone concentrations above MIC (0.5–1 μg/mL) of most staphylococcal isolates ([2]; rat, oral 100 mg/kg): ~8 h
AUC0–8 as share of AUC0–∞ ([2]; rat, oral, 8 h sampling time): about 80%
Bench-top stability, Accuracy (%) ([3]; 0 h, 0.1 µg/mL): 108.10%
Bench-top stability, Accuracy (%) ([3]; 0 h, 100 µg/mL): 97.34%
Bench-top stability, accuracy (range over all time points) ([3]; 0 to 8 h, 0.1 and 100 µg/mL): 92–109%
Bench-top stability, Accuracy (%) ([3]; 1 h, 0.1 µg/mL): 93.38%
Bench-top stability, Accuracy (%) ([3]; 1 h, 100 µg/mL): 96.58%
Bench-top stability, Accuracy (%) ([3]; 2 h, 0.1 µg/mL): 108.61%
Bench-top stability, Accuracy (%) ([3]; 2 h, 100 µg/mL): 95.97%
Bench-top stability, Accuracy (%) ([3]; 4 h, 0.1 µg/mL): 101.47%
Bench-top stability, Accuracy (%) ([3]; 4 h, 100 µg/mL): 94.58%
Bench-top stability, Accuracy (%) ([3]; 6 h, 0.1 µg/mL): 101.24%
Bench-top stability, Accuracy (%) ([3]; 8 h, 0.1 µg/mL): 95.96%
Freeze–thaw stability, Accuracy (%) ([4]; Day 0, 0.1 µg/mL): 110.31%
Freeze–thaw stability, Accuracy (%) ([4]; Day 0, 100 µg/mL): 103.71%
Freeze–thaw stability, Accuracy (%) ([4]; Day 3 (three cycles −20 °C / 25 °C), 0.1 µg/mL): 105.93%
Freeze–thaw stability, Accuracy (%) ([4]; Day 3 (three cycles −20 °C / 25 °C), 100 µg/mL): 108.10%
Long-term stability, accuracy [5]: 94–114%
MIC [6]: 0.39 µg/mL (≈ 0.881 µM)
MIC [7]: 0.39 µg/mL (≈ 0.881 µM)
MIC [8]: 0.19 µg/mL (≈ 0.429 µM)
MIC [9]: 0.5 µg/mL (≈ 1.13 µM)
MIC [10]: 0.5 to 2 µg/mL
MIC [11]: 0.39 to 0.78 µg/mL
MIC [12]: 0.5 to 1 µg/mL
MBCs [13]: 0.03 to 1.00 µg/mL
LD50 [14]: 2000 mg/kg
resistance development [15]: not found to be resistant

CN[C@H](CC(C)C)C(=O)N[C@H]1C(=O)N[C@@H](CC(N)=O)C(=O)N[C@H]2C(=O)N[C@H]3C(=O)N[C@H](C(=O)N[C@H](C(=O)O)c4cc(O)cc(O)c4-c4cc3ccc4O)[C@H](O)c3ccc(c(Cl)c3)Oc3cc2cc(c3O[C@@H]2O[C@H](CO)[C@@H](O)[C@H](O)[C@H]2O[C@H]2C[C@](C)(N)[C@H](O)[C@H](C)O2)Oc2ccc(cc2Cl)[C@H]1O [vancomycin]
half-life ([16]; intramuscular and intraperitoneal administration): 36 min
oral bioavailability ([16]; rats): below 0.5%
oral bioavailability [17]: < 10%
